For assay [1], the target named is T1, Pantothenate kinase 1 (Homo sapiens, UniProt Q8TE04). Put plainly: Inhibition of Pank1beta (unknown origin) by Kinase Glo HTS assay. (In Kinase-Glo more light means more ATP remaining.)
The target in assay [2] is T2, Pantothenate kinase 3 (Homo sapiens, UniProt Q9H999). Put plainly: Inhibition of Pank3 (unknown origin) by Kinase Glo HTS assay.
Target sequence in this assay (Q9H999 whole entry): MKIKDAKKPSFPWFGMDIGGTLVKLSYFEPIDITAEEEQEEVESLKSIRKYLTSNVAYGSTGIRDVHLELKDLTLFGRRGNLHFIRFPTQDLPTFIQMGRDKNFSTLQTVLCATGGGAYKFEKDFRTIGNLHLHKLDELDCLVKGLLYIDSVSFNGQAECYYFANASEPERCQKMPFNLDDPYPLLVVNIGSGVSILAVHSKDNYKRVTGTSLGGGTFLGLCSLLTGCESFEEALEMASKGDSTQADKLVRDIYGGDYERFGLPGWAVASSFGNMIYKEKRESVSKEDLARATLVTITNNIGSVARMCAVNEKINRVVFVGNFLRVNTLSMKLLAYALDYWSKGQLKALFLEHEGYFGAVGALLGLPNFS
The target in assay [3] is T2, Pantothenate kinase 3. Put plainly: Activation of Pank3 (unknown origin) by Kinase Glo HTS assay.
Target sequence in this assay (Q9H999 whole entry): as above
Assay [4] has as its target T1, Pantothenate kinase 1. Put plainly: Inhibition of purified human Pank1beta using d-[1-14C]pantothenate as substrate after 10 mins by radiochemical enzyme assay.
Assay [5] concerns the target T3, Pantothenate kinase 2, mitochondrial (Homo sapiens, UniProt Q9BZ23).
T3 sequence (Q9BZ23 whole entry): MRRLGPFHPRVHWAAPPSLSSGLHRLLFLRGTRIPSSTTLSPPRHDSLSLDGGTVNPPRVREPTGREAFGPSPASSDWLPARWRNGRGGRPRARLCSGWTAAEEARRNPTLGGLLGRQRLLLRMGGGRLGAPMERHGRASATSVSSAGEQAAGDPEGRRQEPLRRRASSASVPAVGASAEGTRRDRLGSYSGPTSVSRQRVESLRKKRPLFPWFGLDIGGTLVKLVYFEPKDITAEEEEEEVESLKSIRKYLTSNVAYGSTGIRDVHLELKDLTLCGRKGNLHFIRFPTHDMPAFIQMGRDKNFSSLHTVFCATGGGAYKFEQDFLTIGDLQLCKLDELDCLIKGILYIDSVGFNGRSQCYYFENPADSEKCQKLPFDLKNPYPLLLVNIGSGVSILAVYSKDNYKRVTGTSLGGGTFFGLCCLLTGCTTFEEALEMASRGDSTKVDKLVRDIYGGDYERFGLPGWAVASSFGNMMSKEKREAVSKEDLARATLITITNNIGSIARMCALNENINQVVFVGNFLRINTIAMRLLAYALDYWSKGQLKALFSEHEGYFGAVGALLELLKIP
Put plainly: Inhibition of purified human Pank2 using d-[1-14C]pantothenate as substrate after 10 mins by radiochemical enzyme assay.

The target of assay [6] is T2, Pantothenate kinase 3. Put plainly: Inhibition of purified human Pank3 using d-[1-14C]pantothenate as substrate after 10 mins by radiochemical enzyme assay.
Target sequence in this assay (Q9H999 whole entry): as the sequence (Q9H999 whole entry) above
In assay [7] the target is T2, Pantothenate kinase 3.
Target sequence in this assay (Q9H999 whole entry, looked up): as the sequence (Q9H999 whole entry) above
Description: Binding affinity to purified human Pank3 assessed as thermal stabilization by thermal shift assay in presence of 2 mM ATP/Mg2+

Each structure is given as a SMILES string. A value given as a limit tells only on which side of the number the result lay.

T1 sequence (Q8TE04 whole entry): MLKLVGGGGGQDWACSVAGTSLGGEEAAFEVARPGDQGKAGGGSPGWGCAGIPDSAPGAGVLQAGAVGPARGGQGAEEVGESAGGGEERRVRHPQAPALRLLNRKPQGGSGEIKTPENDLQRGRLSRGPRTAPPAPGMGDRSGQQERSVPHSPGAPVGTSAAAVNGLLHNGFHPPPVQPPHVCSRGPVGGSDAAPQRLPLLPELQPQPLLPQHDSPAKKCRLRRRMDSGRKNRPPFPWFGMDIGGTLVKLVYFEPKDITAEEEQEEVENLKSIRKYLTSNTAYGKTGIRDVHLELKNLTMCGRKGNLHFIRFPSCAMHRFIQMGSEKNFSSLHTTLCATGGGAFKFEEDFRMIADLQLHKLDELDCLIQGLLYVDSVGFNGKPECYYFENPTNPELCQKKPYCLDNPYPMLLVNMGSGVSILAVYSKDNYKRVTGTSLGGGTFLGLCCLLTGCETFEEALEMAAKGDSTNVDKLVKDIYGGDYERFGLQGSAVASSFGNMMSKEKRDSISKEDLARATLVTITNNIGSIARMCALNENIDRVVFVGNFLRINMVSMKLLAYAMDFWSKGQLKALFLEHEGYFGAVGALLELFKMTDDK

For orientation: IC50 means the point on the concentration scale where inhibition reaches its midpoint. Lower therefore signals inhibition by little substance. Take `CSc1ccc(NC(=O)CCc2c(C)nc3c4cccnc4nn3c2C)cc1`: the IC50 in assay [1] came to 3240 nM; in assay [2] it was 10.5 µM. For `Cc1nc2c3cccnc3nn2c(C)c1CCC(=O)NC1CCCCC1`, in that order: 13600 nM and over 56 µM.

On to `Cc1nc2c3cccnc3nn2c(C)c1CCC(=O)NCC1CCCCC1`, for which the IC50 was 1220 nM in assay [1] and 40.9 µM in assay [2]. For `COc1cccc(CNC(=O)CCc2c(C)nc3c4cccnc4nn3c2C)c1`, in that order: over 56000 nM and over 56 µM. For `COC(=O)c1cccc(NC(=O)CCc2c(C)nc3c4cccnc4nn3c2C)c1`, in that order: over 56000 nM and over 56 µM. For `COc1ccc(CNC(=O)CCc2c(C)nc3c4cccnc4nn3c2C)cc1`, in that order: 14700 nM and 25.8 µM. What is called EC50 is the concentration that produces a half-maximal response. A high value points to weaker potency. In assay [3], `CC(C(=O)Nc1cc(Cl)ccc1Cl)N1CCC(C(=O)NCc2ccccc2)CC1` (stereo not drawn) gave an EC50 of 1720 nM. In assay [2], `CC(C)c1ccc(NC(=O)CCc2nc(O)c3c4c(sc3n2)CCC4)cc1` came in with an IC50 of 0.12 µM. As to `CSc1cccc(NC(=O)CCc2c(C)nc3c4cccnc4nn3c2C)c1`, the IC50 came out at 70 nM in assay [4]; 92 nM in assay [5]; 25 nM in assay [6]; 140 nM in assay [1]; 0.36 µM in assay [2]. In assay [7], the Kapp was found to be 0.3 µM. Consider `COc1ccc(NC(=O)CCc2c(C)nc3c4cccnc4nn3c2C)cc1`, for which the IC50 in assay [1] came to 6690 nM; in assay [2], 11.3 µM. For `CC(=O)Nc1ccc(NC(=O)CCc2c(C)nc3c4cccnc4nn3c2C)cc1`, in that order: 640 nM and 0.35 µM. In the case of `Cc1nc2c3cccnc3nn2c(C)c1CCC(=O)NCc1ccc(F)cc1`, the IC50 in assay [1] was over 56000 nM; in assay [2] it was over 56 µM. Turning to `Cc1nc2c3cccnc3nn2c(C)c1CCC(=O)Nc1cccc(F)c1`, the values for the IC50 in assay [1] and in assay [2] were 240 nM and 0.62 µM, respectively. For `Cc1nc2c3cccnc3nn2c(C)c1CCC(=O)NCc1cccc(F)c1`, in that order: 15800 nM and 10 µM. `Cc1nc2c3cccnc3nn2c(C)c1CCC(=O)Nc1cccc(C(F)(F)F)c1`: the values for the IC50 in assay [1] and in assay [2] were 190 nM and 0.83 µM, respectively. In assay [3], `O=C(Cc1ccc(F)cc1)N1CCN(c2nc3c(Cl)cccc3s2)CC1` had an EC50 of 1510 nM. On to `CC(C)CCNC(=O)c1csc(-c2cccc(Cl)c2Cl)n1`, for which the 50% inhibitory concentration (IC50) in assay [2] stood at 2.45 µM. For `COc1cccc(NC(=O)CCc2c(C)nc3c4cccnc4nn3c2C)c1`, the results for the IC50 in assay [1] and in assay [2] were 280 nM and 1.64 µM, respectively. Turning to `CCN(CC)c1ccc(CNc2nn[nH]n2)cc1`, in assay [3], the EC50 is 3430 nM. As for `Cc1nc2c3cccnc3nn2c(C)c1CCC(=O)Nc1ccc(F)cc1`, the figures for the IC50 in assay [1] and in assay [2] were over 56000 nM and over 56 µM, respectively. As for `CCS(=O)(=O)Nc1ccc(C(=O)NC2CC3CCC2C3)cc1` (stereo not drawn), the IC50 in assay [2] came out at 0.18 µM. Consider `Cc1cccc(NC(=O)CCc2c(C)nc3c4cccnc4nn3c2C)c1`, for which the IC50 in assay [1] was determined as 1570 nM; in assay [2], 3.84 µM. For `COc1ccccc1NC(=O)CCc1c(C)nc2c3cccnc3nn2c1C`, in that order: over 56000 nM and over 56 µM. Taken in the same sequence, the figures for `Cc1nc2c3cccnc3nn2c(C)c1CCC(=O)N(C)c1ccccc1` were over 56000 nM and over 56 µM. Taken in the same sequence, the figures for `Cc1nc2c3cccnc3nn2c(C)c1CCC(=O)Nc1ccccc1F` were 550 nM and 13.6 µM. In the case of `Cc1ccc(NC(=O)CCc2c(C)nc3c4cccnc4nn3c2C)cc1`, the values for the IC50 in assay [1] and in assay [2] were 11200 nM and 25.6 µM, respectively. Compound `Cc1ccc(NC(=O)N2CCN(c3ccccc3F)CC2)c(C)c1` yielded an EC50 in assay [3] of 2410 nM. `Cc1nc2c3cccnc3nn2c(C)c1CCC(=O)Nc1ccccc1`: the IC50 in assay [1] stood at 850 nM; in assay [2], 24.5 µM.

For the origin of these results see ChEMBL document CHEMBL3407433, “A high-throughput screen reveals new small-molecule activators and inhibitors of pantothenate kinases” (J Med Chem, 2015).
